Reference: US20220195046A1, “METHODS OF TREATING TUMOR” (Bristol-Myers Squibb Company, priority 2019, published 2022)

Columns and labels:
[1] = system: unresectable stage III or IV melanoma; test: Clinical trial NCT01844505: nivolumab, nivolumab plus ipilimumab, or ipilimumab in previously untreated melanoma; assay type: in vivo, human; conditions: 4-year follow up, first-line, advanced melanoma
Procedure: In NCT01844505, 945 previously untreated patients with unresectable stage III or IV melanoma were randomly assigned in a 1:1:1 ratio to receive one of the following regimens: (i) 3 mg of nivolumab per kilogram of body weight every 2 weeks (plus ipilimumab-matched placebo) (n=316, 313 treated); (ii) 1 mg of nivolumab per kilogram every 3 weeks plus 3 mg of ipilimumab per kilogram every 3 weeks for 4 doses, followed by 3 mg of nivolumab per kilogram every 2 weeks for cycle 3 and beyond (n=314, 313 treated); or 3 mg of ipilimumab per kilogram every 3 weeks for 4 doses (plus nivolumab-matched placebo) (n=315, 311 treated) (FIG. 14). Both nivolumab and ipilimumab were administered by means of intravenous infusion.
Randomization was stratified according to tumor PD-L1 status (positive vs. negative or indeterminate), BRAF mutation status (V600 mutation-positive vs. wild-type), and American Joint Committee on Cancer metastasis stage (M0, M1a, or M1b vs. M1c). Treatment continued until disease progression (as defined by RECIST, version 1.1), development of unacceptable toxic events, or withdrawal of consent.
Progression-free survival and overall survival were coprimary endpoints. Secondary endpoints included objective response rate, tumor PD-L1 expression, and health related quality of life. Exploratory endpoints included safety, pharmacokinetics, and biomarker analysis.

[2] = system: unresectable stage III or IV melanoma without a BRAF mutation; test: Clinical trial NCT01721772: nivolumab vs dacarbazine in previously untreated melanoma without BRAF mutation; assay type: in vivo, human; conditions: 3-year follow up, previously untreated BRAF wildtype advanced melanoma
Procedure: The present example reports data collected from two clinical trials: NCT01721772 and NCT01844505. In NCT01721772, 418 subjects with confirmed, unresectable, previously untreated stage III or IV melanoma without a BRAF mutation were randomly assigned in a 1:1 ratio to receive by means of intravenous infusion either 3 mg of nivolumab per kilogram of body weight every 2 weeks, plus a dacarbazine-matched placebo every 3 weeks (n=210, 206 treated), or 1000 mg of dacarbazine per square meter of body-surface area every 3 weeks, plus a nivolumab-matched placebo every 2 weeks (n=208, 205 treated). Randomization was stratified according to tumor PD-L1 status (positive vs. negative or indeterminate) and metastasis stage (M0, M1a, or M1b vs. M1c, defined according to the tumor-node-metastasis system of the American Joint Committee on Cancer and the International Union against Cancer).
The primary end point was overall survival. Secondary end points included investigator-assessed progression-free survival, objective response rate, tumor PD-L1 expression, and health related quality of life. Exploratory endpoints included safety, pharmacokinetics, and biomarker analysis.

[3] = system: advanced hepatocellular carcinoma (HCC); test: Clinical Trial NCT01658878: nivolumab in advanced hepatocellular carcinoma, SOR-naive and SOR-experienced cohorts 1 and 2; assay type: in vivo, human
Procedure: Cohort 1 comprised 80 SOR-naïve subjects, and Cohort 2 comprised 182 SOR-experienced subjects. Eleven subjects in Cohort 1 and 37 subjects in Cohort 2 were administered 0.1-10 mg/kg nivolumab as part of a dose-escalation analysis. Sixty-nine subject in Cohort 1 and 145 subjects in cohort 2 were administered 3 mg/kg nivolumab as part of a dose-expansion analysis. Following initial treatment, 154 subjects in Cohort 2 (9 subject from the dose-escalation study and 145 subjects from the dose-expansion study) were administered maintenance nivolumab at 3 mg/kg.
The primary endpoints of Clinical Trial NCT01658878 were safety and tolerability (dose-escalation) as well as objected response rate (ORR; dose-expansion). Secondary endpoints included ORR (dose-escalation), disease control rate, time to response, duration of response, and overall survival. Exploratory endpoints included biomarker assessments, which are discussed here. […]

[4] = system: PD-L1, PD-1, T-cell markers (CD3, CD4, CD8, FOXP3), macrophage markers (CD68, CD163); test: IHC biomarker assessment of pretreatment HCC tumor samples vs BOR and overall survival (NCT01658878); parameters: species or system human; conditions: for Objective response rate, % (95% CI): BOR
Procedure: Pretreatment tumor samples (fresh or archival) were obtained from patients in the escalation and expansion phases receiving 3 mg/kg nivolumab (saved for IHC) or 0.1-10 mg/kg nivolumab (saved for RNA sequencing).
Samples were analyzed using (i) IHC to assess PD-L1, PD-1, T-cell markers (CD3, CD4, CD8, FOXP3), and macrophage markers (CD68, CD163); and (ii) RNA sequencing to assess tumor inflammatory signatures. Biomarkers were assessed for their association with clinical outcomes including BOR by blinded independent review committee (per RECIST v1.1) and overall survival. Analyses were performed using the standard Limma and Cox regression framework.

[5] = monotherapy, every two weeks; cited from earlier work
[6] = tumor cell PD-L1 <1%, SOR-experienced population n = 137
[7] = tumor cell PD-L1 <1%, overall population (SOR-naïve and SOR-experienced) n = 195
[8] = tumor cell PD-L1 ≥1%, SOR-experienced population n = 137
[9] = tumor cell PD-L1 ≥1%, overall population (SOR-naïve and SOR-experienced) n = 195

ipilimumab
ORRb, % (95% CI) [1]: 19% | median OS, months (95% CI) [1]: 19.9 (16.9-24.6) months | median PFS, months (95% CI) [1]: 2.9 (2.8-3.2) months

CN(C)/N=N/c1[nH]cnc1C(N)=O [dacarbazine]
ORR, % (95% CI) [2]: 14% | median OS, months (95% CI) [2]: 11.2 (9.6-13.0) months | median PFS, months (95% CI) [2]: 2.2 (2.1-2.5) months

nivolumab
ORR [3]: 14.3% | subjects with duration of response (DOR) of at least 12 months [3]: 50% | ORR, % (95% CI) [2]: 43% | median OS, months (95% CI) [2]: 37.5 (25.5—NR) months | median PFS, months (95% CI) [2]: 5.1 (3.5-12.2) months | ORRb, % (95% CI) [1]: 45% | median OS, months (95% CI) [1]: 36.9 (28.3—NR) months | median PFS, months (95% CI) [1]: 6.9 (5.1-10.2) months | Complete response, n (%) [4, 6]: 4 (3.6) n (%) | Partial response, n (%) [4, 6]: 10 (9) n (%) | Progressive disease, n (%) [4, 6]: 42 (38.1) n (%) | Stable disease, n (%) [4, 6]: 49 (44.5) n (%) | Objective response rate, % (95% CI) [4, 6]: 12.7 (7.6-20.3) % | Complete response, n (%) [4, 7]: 6 (3.7) n (%) | Partial response, n (%) [4, 7]: 19 (11.9) n (%) | Progressive disease, n (%) [4, 7]: 59 (37.1) n (%) | Stable disease, n (%) [4, 7]: 66 (41.5) n (%) | Objective response rate, % (95% CI) [4, 7]: 15.7 (10.8-22.2) % | Complete response, n (%) [4, 8]: 1 (3.7) n (%) | Partial response, n (%) [4, 8]: 6 (22.2) n (%) | Progressive disease, n (%) [4, 8]: 10 (37) n (%) | Stable disease, n (%) [4, 8]: 8 (29.6) n (%) | Objective response rate, % (95% CI) [4, 8]: 25.9 (12.9-44.9) % | Complete response, n (%) [4, 9]: 2 (5.5) n (%) | Partial response, n (%) [4, 9]: 8 (22.2) n (%) | Progressive disease, n (%) [4, 9]: 15 (41.6) n (%) | Stable disease, n (%) [4, 9]: 9 (25) n (%) | Objective response rate, % (95% CI) [4, 9]: 27.7 (15.7-44.1) % | maximum tolerated dose (MTD), not reached at highest dose [5]: > 10 mg/kg
